Patent US9145375B2, “Quinazolinone compounds” (PRANA BIOTECHNOLOGY LIMITED, priority 2008, dated 2015)
In brackets after ≈: the same amount, converted by molar mass. Where two headings read alike, the source gives them in different places.

Columns and labels:
CYP3A4 = CYP3A4 (Homo sapiens, UniProt P08684); test: CYP450 inhibition, specific substrate approach in human liver microsomes: CYP3A4; type: in vitro ADME; set-up: using a specific substrate approach in human liver microsomes; from tissue; host or cells: human liver microsomes
Protocol: (§1) CYP450 Isoform Inhibition Using a Specific Substrate Approach
(§2) The present study is a “Tier 2” screen to assess potential enzyme inhibition at a test compound concentration of 20 μM using a specific substrate approach in human liver microsomes.
(§3) The substrate specific enzyme inhibition study relies on the formation of a metabolite that is mediated by a specific CYP450 isoform using human liver microsomes. In the current study, the following reactions were monitored to assess interactions with specific CYP450 isoforms. A known inhibitor of each isoform was included in each assay as a positive control. The following IC50 values have been reported in the literature using equivalent assay conditions for each CYP450 isoform:
(§4) The reaction was initiated by the addition of an NADPH-regenerating system and was quenched by the addition of acetonitrile prior to determining the concentration (and apparent rate of formation) of the specific metabolite by LC/MS.
(§5) The IC50 was deemed to be the concentration at which there was a 50% reduction in the amount of metabolite formed, relative to the maximal extent of formation.

CYP2C19 = target: T1, CYP2C19 (Homo sapiens, UniProt P33261); test: CYP450 inhibition, specific substrate approach in human liver microsomes: CYP2C19; type: in vitro ADME
T1 construct: using a specific substrate approach in human liver microsomes; from tissue; host or cells: human liver microsomes
Protocol: as §1, §2, §3, §4, §5

PK Studies in the Rat = type: in vivo
Protocol: Assay 5. Pharmacokinetic Profile
The pharmacokinetic profile of test compounds is determined by the following assay: • Intravenous infusion of test compound; 2 mg/Kg in a suitable vehicle is […]; […] up to 24 hours. • Plasma concentrations of test compound are determined by suitable analytical method.
[formula] [formula] [formula] • CLtotal=total plasma clearance after IV administration • Vdβ=volume of distribution during the elimination phase after IV administration • BA=oral bioavailability • AUCIV=area under the plasma concentration versus time profile from time zero to infinity after IV administration • AUCoral=area under the plasma concentration versus time profile from time zero to infinity after oral administration • β=terminal elimination rate constant after IV administration Assay 6. Blood Brain Barrier Penetration

Mouse Plasma Conc. = type: in vivo; conditions: given as 'Up to'
[1] = test system: 6-OHDA lesion of the SNpc; test: Parkinson's disease in vivo: 6-OHDA model; set-up: species or system mouse; conditions: 6-OHDA lesioned mice
Protocol: Parkinson's Disease In Vivo Technique: 6-OHDA Model
Preparation of the toxin 6-OHDA (1.65 mg/mL, Sigma Cat# H-4381):
6-OHDA toxin is dissolved in ascorbic acid solution (0.2 mg/mL in dH2O), store in dark on ice. To increase the speed of anaesthesia and reduce stress to the mouse, there is premedication with atropine (0.5 mg/kg) and xylazine (10 mg/kg) is injected subcutaneously via a 27 gauge needle).
To Prepare the Lesion Needle to Inject 6-OHDA:
PBS is sucked up into the line (ensure no air bubbles) with up to […] in a Hamilton syringe. Syringe is placed the in the Kd Scientific syringe pump and secured. Pump is turned the on and syringe is loaded into the pump. Pump volume is set at […] and the rate is set at 0.5 ml/min. The lesion needle is positioned so that the bevelled (eye) of the needle is at a 45° angle from the midline and tightened to secure the needle. Pump is run and checked for fluid coming out.
3-4% isoflurane is carried by oxygen to induce anaesthesia and 1-2% for maintenance of anaesthesia. Animal is placed in small induction chamber and subjected to a few minutes of 4% isoflurane in oxygen at a flow rate of approx 1 l/min. Mouse is then placed in stereotaxic frame. The anaesthetic tube is disconnected from induction box and isoflurane reduced to 2% conc and oxygen flow rate to approx […]. Tube is connected to the nose piece attached to stereotaxic frame so that anaesthetic gas can be constantly administered during surgery. LHS ear bar is screwed at approx 3 mm. RHS ear bar is screwed in until there is no sideways head movement (about 5 mm). Front incisors are placed over the mouthguard and put nose-guard on (3 mm below 0). Mouthguard is screwed into place and ensured the top of the mouse's head is level (re-check this once the animal's skull is exposed).
Using a scalpel (size 4, blade 22), the scalp is cut down the centreline of the mouse's head to expose the skull. Typically 10-15 mm. The surface of the skull is dried with a cotton bud. Drill hole is measured with a ruler 3 mm posterior from Bregma and between 1 and 1.5 mm laterally from the centre line. The skull is drilled into this position until the surface of the brain is exposed.
6-OHDA is sucked up to fill approximately 15 cm of the line and the syringe. Fluid is ensured to be coming out of needle. The bevelled of the needle is aligned over the centreline where Bregma crosses, viewed by Motik dissecting microscope. The needle is ensured to be a few mm above the skull before positioning. Frame is moved 2.9 mm in a posterior direction and 1.1 mm (11 small notches) laterally to the right (for RHS injections) from the starting coordinates at Bregma. Needle is moved down until the tip of the needle just touches the surface of the brain.
Needle is lowered to the required depth of 4.6 mm and brain is allowed to settle for 2 min.
[…] of toxin is injected into the RHS SNpc, taking 4 min. 2 min is allowed to ensure the toxin disperses. Needle is withdrawn and antiseptic applied to the wound, with suture or superglue to close.
Mouse is wrapped in a piece of tissue and placed in a warm recovery box (on a heat pad) with water bottles (50 ml tubes) warmed to 50 C. Panadol® syrup is added to mouse's water bottle.
Rotation is recorded by the Computer based Rotacount system—(Columbus Instruments, Columbus, Ohio, USA). The system comprised of 8 bowls with sensors connected to a computer which measures incremental turns (90 degrees and full turns 360 degrees) either clockwise or counter clockwise. The sensors are positioned above the centre of each bowl about 30 cm above each. Tubing and a thin empty plastic pipette are attached so that the sensor is now extended to with a few cm of the base of the bowl.
Mice are placed individually into the eight bowls. Mice are secured to the pipettes via a cable tie and tape. […]

[2] = Metabolism in hepatocytes (predicted EH), rat; type: in vitro ADME
[3] = Equilibrium Solubility (pH 2-7); type: physicochemical; conditions: for solubility thermodynamic: aqueous buffer, thermodynamic from solid
CYP2D6 = target: T2, CYP2D6 (Homo sapiens, UniProt P10635); test: CYP450 inhibition, specific substrate approach in human liver microsomes: CYP2D6; type: in vitro ADME
T2 construct: using a specific substrate approach in human liver microsomes; from tissue; host or cells: human liver microsomes
Protocol: as §1, §2, §3, §4, §5

Sequence of CYP3A4 (P08684 2-503): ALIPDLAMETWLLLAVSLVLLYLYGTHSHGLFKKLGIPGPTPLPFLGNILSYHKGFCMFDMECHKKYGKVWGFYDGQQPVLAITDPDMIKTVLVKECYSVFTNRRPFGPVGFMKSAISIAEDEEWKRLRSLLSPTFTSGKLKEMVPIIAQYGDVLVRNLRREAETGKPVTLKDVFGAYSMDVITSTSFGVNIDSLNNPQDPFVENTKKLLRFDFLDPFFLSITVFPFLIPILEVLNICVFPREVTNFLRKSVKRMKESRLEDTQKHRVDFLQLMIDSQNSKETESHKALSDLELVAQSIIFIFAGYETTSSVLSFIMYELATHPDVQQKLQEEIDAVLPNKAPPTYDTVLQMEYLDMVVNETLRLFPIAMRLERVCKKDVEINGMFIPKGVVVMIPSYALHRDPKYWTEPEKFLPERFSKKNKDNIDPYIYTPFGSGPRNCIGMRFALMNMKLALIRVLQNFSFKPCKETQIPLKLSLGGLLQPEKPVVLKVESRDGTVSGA
T1 sequence (P33261 whole entry): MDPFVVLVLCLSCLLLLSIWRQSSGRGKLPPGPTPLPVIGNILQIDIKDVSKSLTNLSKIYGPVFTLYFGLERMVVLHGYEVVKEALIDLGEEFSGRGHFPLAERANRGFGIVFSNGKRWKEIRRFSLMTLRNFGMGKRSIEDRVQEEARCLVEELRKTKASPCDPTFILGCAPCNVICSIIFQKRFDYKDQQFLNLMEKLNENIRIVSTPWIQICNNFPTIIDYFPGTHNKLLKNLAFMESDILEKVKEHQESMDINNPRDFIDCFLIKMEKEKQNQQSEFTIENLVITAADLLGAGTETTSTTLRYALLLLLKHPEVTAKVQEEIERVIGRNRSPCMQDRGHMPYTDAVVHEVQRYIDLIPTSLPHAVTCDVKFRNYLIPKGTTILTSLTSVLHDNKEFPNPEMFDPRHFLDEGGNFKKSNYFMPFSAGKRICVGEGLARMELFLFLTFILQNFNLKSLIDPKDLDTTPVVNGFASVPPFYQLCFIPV
T2 sequence (P10635 whole entry): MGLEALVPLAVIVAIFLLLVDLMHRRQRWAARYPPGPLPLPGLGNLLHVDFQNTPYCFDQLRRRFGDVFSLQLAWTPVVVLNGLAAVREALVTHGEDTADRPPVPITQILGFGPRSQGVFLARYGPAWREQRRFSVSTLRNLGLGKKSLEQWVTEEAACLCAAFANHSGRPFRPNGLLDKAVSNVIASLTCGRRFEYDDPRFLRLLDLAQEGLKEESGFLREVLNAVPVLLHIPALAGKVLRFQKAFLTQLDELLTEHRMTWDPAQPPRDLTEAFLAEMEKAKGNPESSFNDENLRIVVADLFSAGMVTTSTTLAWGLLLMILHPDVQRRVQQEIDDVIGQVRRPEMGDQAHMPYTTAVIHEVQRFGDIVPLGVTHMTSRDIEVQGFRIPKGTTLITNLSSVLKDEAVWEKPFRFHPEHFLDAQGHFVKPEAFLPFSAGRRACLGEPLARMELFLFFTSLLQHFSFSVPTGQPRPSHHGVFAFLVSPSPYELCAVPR

CCN(CC)Cc1nc2c(O)c(Cl)cc(Cl)c2c(=O)n1CC1CC1 [Compound F4385]
IC50 (CYP3A4; midazolam, read-out: CYP3A4-Midazolam IC50): 21.5 µM
IC50 (CYP3A4; testosterone, read-out: CYP3A4-Testosterone IC50): > 30 µM
IC50 (CYP2C19): > 30 µM
% dose in urine (PK Studies in the Rat; oral 20 mg/Kg): 0.05% dose
l24 (PK Studies in the Rat; oral 20 mg/Kg): l24 = 0.5-1.5 u uM
Cmax (PK Studies in the Rat; plasma, oral 20 mg/Kg): 7.3 µM
Tmax (PK Studies in the Rat; plasma, oral 20 mg/Kg): 0.5 h
half-life (PK Studies in the Rat; plasma, oral 20 mg/Kg): 14.7 h
AUC(0-t) (PK Studies in the Rat; plasma, oral 20 mg/Kg, read-out: AUC0-24 h (converted)): 52.1 µM·h
Mouse Plasma Conc. (Mouse Plasma Conc.): ≤ 9074 ng/mL
Behaviour (Rotation) % SSV ([1]; SSV = 0%, dose not given): 49.98%
Behaviour (Rotation) total turns/h ± SD ([1]; dose not given): (129.57 ± 16.26) turns/h
SN cell counts % of SSV (SSV = 0%) ([1]; dose not given): 56.81%
SN cell counts (cells ± SD) ([1]; dose not given): (3011.56 ± 502.27) cells
Metabolism (Predicted EH), Hepatocytes: Rat [2]: Rat = 0.35
pH dependence of equilibrium solubility [3]: pH dependent
solubility thermodynamic [3]: 0.683 to 1.66 mg/mL (≈ 1.84 to 4.49 mM)
IC50 (CYP2D6): 5.1 µM

CN(C)Cc1nc2c(O)c(Cl)cc(Cl)c2c(=O)n1CC1CC1 [Compound F4267]
IC50 (CYP3A4; substrate not stated, read-out: CYP3A4 IC50): > 30 µM
IC50 (CYP2C19): > 30 µM
l24 (PK Studies in the Rat; oral 30 mg/Kg): l24 = 0.25-0.5 uM
half-life (PK Studies in the Rat; plasma, oral 30 mg/Kg): 4.9 h
Mouse Plasma Conc. (Mouse Plasma Conc.): ≤ 1166.6 ng/mL
Behaviour (Rotation) % SSV ([1]; 5 mg kg): 7.01%
Behaviour (Rotation) total turns/h ± SD ([1]; 5 mg kg): (240.89 ± 171.99) turns/h
SN cell counts % of SSV (SSV = 0%) ([1]; 5 mg kg): 55.79%
SN cell counts (cells ± SD) ([1]; 5 mg kg): (2992.00 ± 883.84) cells
Behaviour (Rotation) % SSV ([1]; 15 mg kg): −23.39%
Behaviour (Rotation) total turns/h ± SD ([1]; 15 mg kg): (319.67 ± 171.05) turns/h
SN cell counts % of SSV (SSV = 0%) ([1]; 15 mg kg): 77.86%
SN cell counts (cells ± SD) ([1]; 15 mg kg): (3415.96 ± 498.05) cells
Behaviour (Rotation) % SSV ([1]; 30 mg kg): 36.33%
Behaviour (Rotation) total turns/h ± SD ([1]; 30 mg kg): (164.93 ± 110.90) turns/h
SN cell counts % of SSV (SSV = 0%) ([1]; 30 mg kg): 110.44%
SN cell counts (cells ± SD) ([1]; 30 mg kg): (4041.70 ± 799.55) cells
Metabolism (Predicted EH), Hepatocytes: Rat [2]: Rat = 0.45
pH dependence of equilibrium solubility [3]: pH dependent
solubility thermodynamic [3]: 0.393 to 1.71 mg/mL (≈ 1.15 to 4.98 mM)
IC50 (CYP2D6): 7.4 µM
